Measurements reported in ChEMBL document CHEMBL4376831, “Enhancing the Cell Permeability of Stapled Peptides with a Cyclic Cell-Penetrating Peptide” (J Med Chem, 2019).
Calls of active or inactive are those of the source. The rule behind the calls is not given here. *1 amine or outer side, *2 acyl side, *3 side chain or, on linkers, in order; H or OH if unused. Where a SMILES comes first, the peptide text is derived from it. Bridges are numbered along the chain shown (N, C = ends). Roman numbers before positions name the chains, in order. [ ]: non-standard residue; d: D form. The star is where a group is joined. X1 = O=C(O)c1cc(C(=O)*)ccc1-c1c2ccc(=O)cc-2oc2cc(O)ccc12; 2Nal = N[C@@H](Cc1ccc2ccccc2c1)C(=O)O; mXylylene = c1cc(C[*:1])cc(C[*:2])c1; AEEA = NCCOCCOCC(=O)O

Columns and labels:
SJSA-1 [1] = conditions: Homo sapiens
HCT-116 [2] = experiment: Induction of cell membrane disruption in human HCT116 cells expressing wild-type p53 at =>20 uM incubated for 4 hrs by LDH assay relative to control; format: functional
HeLa [3] = experiment: Induction of apoptosis in human HeLa cells expressing wild-type p53 at =< 10 uM incubated for 48 hrs by Annexin V/propidium iodide-staining based flow cytometric analysis relative to control; format: functional
MCF7 [4] = experiment: Induction of apoptosis in human MCF7 cells expressing wild-type p53 at =< 10 uM incubated for 48 hrs by Annexin V/propidium iodide-staining based flow cytometric analysis relative to control; format: functional
HeLa [5] = experiment: Induction of cell membrane disruption in human HeLa cells incubated for 4 hrs using FAM-labeled compound by LDH assay; format: cell-based
SJSA-1 [6] = experiment: cells; conditions: Homo sapiens, SJSA-1, 72 h
HeLa [7] = experiment: Cytotoxicity against human HeLa cells incubated for 72 hrs using FAM-labeled compound by MTT assay; format: cell-based
HCT-116 [8] = experiment: Induction of apoptosis in human HCT116 cells expressing wild-type p53 at =< 10 uM incubated for 48 hrs by Annexin V/propidium iodide-staining based flow cytometric analysis relative to control; format: functional
HeLa [9] = experiment: Induction of cell membrane disruption in human HeLa cells expressing wild-type p53 at =>20 uM incubated for 4 hrs by LDH assay relative to control; format: functional
MCF7 [10] = experiment: Induction of cell membrane disruption in human MCF7 cells expressing wild-type p53 at =>20 uM incubated for 4 hrs by LDH assay relative to control; format: functional
SJSA-1 [11] = experiment: Induction of apoptosis in human SJSA1 cells at 10 uM incubated for 48 hrs by Annexin V/propidium iodide-staining based flow cytometric analysis; format: functional, cell-based
SW480 = experiment: Antiproliferative activity against human SW480 cells at 20 uM incubated for 72 hrs by MTT assay; format: functional, cell-based
Catenin beta-1 = target: T1, Catenin beta-1 (Mus musculus, UniProt Q02248); experiment: Binding affinity to mouse GST tagged beta catenin (133 to 665 residues) expressed in Escherichia coli BL21 (DE3) cells incubated for 1 hr
T1 sequence (Q02248 whole entry): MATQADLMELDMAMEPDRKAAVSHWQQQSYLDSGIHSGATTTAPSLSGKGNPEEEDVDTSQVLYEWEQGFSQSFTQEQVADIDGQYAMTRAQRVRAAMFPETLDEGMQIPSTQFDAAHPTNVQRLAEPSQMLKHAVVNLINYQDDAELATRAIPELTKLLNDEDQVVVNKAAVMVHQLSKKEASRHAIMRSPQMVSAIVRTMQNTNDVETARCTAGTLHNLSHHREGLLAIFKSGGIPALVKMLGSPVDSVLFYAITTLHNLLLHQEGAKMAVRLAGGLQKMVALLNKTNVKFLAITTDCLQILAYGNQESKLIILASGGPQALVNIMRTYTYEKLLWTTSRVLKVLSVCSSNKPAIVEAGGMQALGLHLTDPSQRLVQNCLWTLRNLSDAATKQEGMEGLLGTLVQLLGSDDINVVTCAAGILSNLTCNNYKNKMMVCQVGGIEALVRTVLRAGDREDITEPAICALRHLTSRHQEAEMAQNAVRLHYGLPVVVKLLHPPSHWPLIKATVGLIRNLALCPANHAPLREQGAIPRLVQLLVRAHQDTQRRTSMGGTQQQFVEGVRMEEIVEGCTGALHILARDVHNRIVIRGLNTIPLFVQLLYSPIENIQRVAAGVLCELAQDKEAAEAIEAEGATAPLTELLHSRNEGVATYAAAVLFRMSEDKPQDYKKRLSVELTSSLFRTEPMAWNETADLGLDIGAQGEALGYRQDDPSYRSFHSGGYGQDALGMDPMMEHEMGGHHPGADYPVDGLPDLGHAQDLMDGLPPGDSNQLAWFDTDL

For `CC(=O)N[C@@H](CC(C)C)C(=O)N[C@H](C(=O)N[C@@H](Cc1ccccc1)C(=O)N[C@H]1CC(=O)NCCCC[C@@H](C(=O)N[C@@H](CCC(N)=O)C(=O)N[C@@H](CC(C)C)C(=O)N[C@H](C(=O)N[C@@H](CO)C(=O)NCCOCCOCC(=O)N[C@@H](CCCCNC(=O)CC[C@@H]2NC(=O)[C@@H](CCCNC(=N)N)NC(=O)[C@H](CCCNC(=N)N)NC(=O)[C@@H](CCCNC(=N)N)NC(=O)[C@H](CCCNC(=N)N)NC(=O)[C@H](Cc3ccc4ccccc4c3)NC(=O)[C@@H](Cc3ccccc3)NC2=O)C(N)=O)[C@@H](C)O)NC(=O)[C@H](Cc2c[nH]c3ccccc23)NC(=O)[C@H](Cc2ccc(O)cc2)NC(=O)[C@H](Cc2cnc[nH]2)NC1=O)[C@@H](C)O` (I: Ac-LTFDHYWKQLTS[AEEA]K-NH2 / II: cyclo([2Nal]R[dR]R[dR]E[dF]); lactam I:4-I:8; amide I:14-II:6), the Activity (SJSA-1 [1]) was “Dose-dependent effect”, the Activity (HCT-116 [2]) was 100% and the Activity (HeLa [3]) was 5 - 50%. For the same molecule, the Activity (MCF7 [4]) was 5 - 50%, the Activity (HeLa [5]) was “Toxic” and the EC50 (SJSA-1 [6]) was 3800 nM. For the same molecule, the Activity (HeLa [7]) was “Toxic”, the Activity (HCT-116 [8]) was 5 - 50% and the Activity (HeLa [9]) was 100%. The Activity (MCF7 [10]) was 100% and the Activity (SJSA-1 [11]) was “Active”.
For `CC[C@H](C)[C@@H]1NC(=O)[C@@H](NC(=O)[C@H](CCC(=O)O)NC(=O)[C@@H]2CCCN2C(=O)[C@H](Cc2ccc(O)cc2)NC(=O)CNC(=O)CNC(=O)c2ccc(-c3c4ccc(=O)cc-4oc4cc(O)ccc34)c(C(=O)O)c2)CSCc2cccc(c2)CSC[C@@H](C(=O)N[C@@H](Cc2cnc[nH]2)C(=O)N[C@@H](CC(C)C)C(=O)N[C@@H](CCC(N)=O)C(=O)N[C@@H](CCCNC(=N)N)C(=O)N[C@H](C(=O)N[C@H](C(=O)N[C@@H](CC(C)C)C(N)=O)[C@@H](C)CC)C(C)C)NC(=O)[C@H](CC(=O)O)NC(=O)[C@H](CC(C)C)NC1=O` (X1-GGYPECILDCHLQRVIL-NH2; linker 6-10 via mXylylene), the Activity (SW480) was “Active” and the Kd (Catenin beta-1) was 18 nM.
